Test results taken from patent publication US11932633B2, “KRas G12C inhibitors” (Mirati Therapeutics, Inc., priority 2018, dated 2024).

Key:
[1] = target: T1, KRas G12C (Homo sapiens, UniProt P01116, C118S/C51S/C80L/G12C); assay: KRas G12C Modification Assay (LCMS detection of covalent adduct); type: binding; conditions: 5 μM concentration for 3 hours
T1 construct: GDP-loaded K-Ras (1-169) G12C, C51S, C80L, C118S
Method: This Example illustrates that exemplary compounds of the present invention covalently bind to KRas G12C using a LCMS assay to detect a covalent adduct of the exemplary compound and KRAS G12C.
The protein concentration of GDP-loaded K-Ras (1-169) G12C, C51S, C80L, C118S and GTP-loaded K-Ras (1-169) G12C, C51S, C80L, C118S, Q61H was adjusted to 2 μM in K-Ras Assay Buffer (25 mM HEPES, 150 mM NaCl, 5 mM MgCl2, and 10 mM Octyl β-glucopyranoside at pH 7.5). A 10 μL aliquot of each protein solution was transferred to a 384 well microtiter plate. Initial compound stocks were generated at fifty times their desired final assay concentration in DMSO.
Exemplary compounds of formula (I) were diluted 25-fold into K-Ras Assay Buffer to a final of two times their final concentration. A 10 μL aliquot of each diluted compound solution was added to each of the protein solutions in the microtiter plate to initiate reaction. Typical final compound concentrations were 3.0, 5.0 and 25.0 μM. At each time point, the reactions were quenched with 20 μL of a 25 mM acetic acid solution. Usual assay endpoints were 15, 180 and 1440 minutes. Once all reactions were quenched, the plates were heat sealed and the samples were injected into a LC/MS system for data acquisition.
Data collection took place on an Agilent 6520 Q-TOF Accurate Mass Spectrometer. Samples were injected in their liquid phase onto a C-3 reverse phase column to remove assay buffer and prepare the samples for mass spectrometer. The proteins were eluted from the column using an acetonitrile gradient and fed directly into the mass analyzer. Initial raw data analysis took place in Agilent MassHunter software immediately post data acquisition.
Raw data analysis of the intact protein was exclusively a deconvolution of the multiple charge states of each protein in solution using a maximum entropy deconvolution provided in Mass Hunter. To minimize complexity, only the data over limited mass ranges were considered for analysis, with a minimum of one Dalton mass step intervals. The heights of all masses identified during raw data analysis were exported to be further analyzed in Spotfire® data analysis software.
Final data analysis was a multistep process in the Spotfire® data analysis software package. Briefly, each protein mass was calculated as a percent of the total signal of that sample, that percentage was normalized to the percentage of signal of the protein in the absence of reactive compounds. Those normalized signals were reported as normalized percent of control (POC). […] Key: N.D. is not determined.

[2] = target: T2, KRas G12C (Homo sapiens, UniProt P01116, G12C); assay: Cellular inhibition of KRas G12C measured by Phospho-ERK in NCI-11358 cells; type: cell-based; conditions: NCI-11358 cells (ATCC CRL-5807), 3 hours; read-out: Inhibition (IC50, pERK (Thr202/Tyr204) signal normalized with GAPDH)
T2 construct: NCI-11358 cells (ATCC CRL-5807) express KRas G12C; host or cells: NCI-H358
Method: The cellular inhibition of KRAs G12C by exemplary compounds of the present invention was determined by measuring the amount of a downstream marker of KRas activity, phosphorylated ERK (“Phospho-ERK”).
NCI-11358 cells (ATCC CRL-5807) express KRas G12C and were grown in RPMI medium supplemented with 10% fetal bovine serum, penicillin/streptomycin and 10 mM HEPES. Cells were plated in poly-D-Lysine coated 96-well plates at a concentration of 50,000 cells/well and allowed to attach for 8-12 hours. Diluted compounds were then added at a final concentration of 0.5% DMSO. After 3 hours, the medium was removed, 150 μL of 4% formaldehyde was added and the plates were incubated for 20 minutes. The plates were washed with PBS, and permeabilized using 150 μL of ice cold 100% methanol for 10 minutes. Non-specific antibody binding to the plates was blocked using 100 μL Licor Blocking Buffer (Li-Cor Biotechnology, Lincoln NE) for 1 hour at room temperature. Positive control samples and samples lacking cells were parallel processed with test samples as standards.
The amount Phospho-ERK was determined using an antibody specific for the phosphorylated form of ERK and compared to the amount of GAPDH. Primary antibodies used for detection were added as follows: Phospho-ERK (Cell Signaling cs9101) diluted 1:500 and GAPDH (Millipore MAB374) diluted 1:5000 in Licor block+0.05% Tween 20. The plates were incubated for 2 hours at room temperature. The plates were washed with PBS+0.05% Tween 20.
Secondary antibodies used to visualize primary antibodies were added as follows: Anti-rabbit-680 diluted 1:1000 and Anti-mouse-800 diluted 1:1000 in Licor Block+0.05% Tween 20 and incubated for 1 hour at room temperature. The plates were washed with PBS+0.05% Tween 20. A 100 μL aliquot of PBS was added to each well and the plates were read on a LICOR AERIUS plate reader.
The pERK (Thr202/Tyr204) signal was normalized with the GAPDH signal and percent of DMSO control values were calculated. IC50 values were generated using a 4 parameter fit of the dose response curve. Key: “A”: ≤1 μM, “B”>1 μM and N.D.=not determined.

Row | POC (normalized percent of control, covalent modification of KRas G12C) [1] | IC50 [2] | SMILES
1 | 88% of control | ≤ 1000 nM | C=CC(=O)N1CC(CN2C(=O)COc3cc(-c4cc(O)cc5ccccc45)c(Br)cc32)C1 [Example 31, 4-((1-acryloylazetidin-3-yl)methyl)-6-bromo-7-(3-hydroxynaphthalen-1-yl)-2H-benzo[b][1,4]oxazin-3(4H)-one]
2 | 94% of control | > 1000 nM | C=CC(=O)N1CC(CN2C(=O)COc3cc(-c4cc(O)cc5ccccc45)ccc32)C1 [Example 12, 4-((1-acryloylazetidin-3-yl)methyl)-7-(3-hydroxynaphthalen-1-yl)-2H-benzo[b][1,4]oxazin-3(4H)-one]
